Measurements: article PMC3344907, “Inhibitory Effects and Underlying Mechanism of 7-Hydroxyflavone Phosphate Ester in HeLa Cells” (PLoS ONE, 2012)

Experiments:
[1] = biological target: T1, CaM-activated PDE1 (Ca2+-CaM-phosphodiesterase 1); experiment: PDE-Glo luminescence assay of CaM-activated PDE; supported by fluorescence quenching of the CaM-Ca2+-PDE system; assay type: biochemical, Bos taurus
T1 construct: bovine brain PDE (Sigma-Aldrich P9529); with calmodulin (CaM)

[2] = biological target: T1, CaM-activated PDE1 (Ca2+-CaM-phosphodiesterase 1); experiment: PDE-Glo luminescence assay of CaM-activated PDE; assay type: biochemical, Bos taurus

Row | SMILES | IC50 [1] [µM] | IC50 [2] [µM]
1 | CCOP(=O)(OCC)Oc1ccc2c(=O)cc(-c3ccccc3)oc2c1 [FP, diethyl flavon-7-yl phosphate] | 22.3 | 
2 | O=c1cc(-c2ccccc2)oc2cc(O)ccc12 [HF, 7-hydroxyflavone] |  | 76.7
